Test results published in US10662189B2, “PDE4 inhibitor” (SHIJIAZHUANG SAGACITY NEW DRUG DEVELOPMENT CO., LTD., priority 2016, dated 2020).

Experiments:
[1] = test system: collagen-induced arthritis in mice; experiment: In vivo CIA model (collagen-induced mouse arthritis); parameters: species or system DBA/1 mice; conditions: for total pathological score (two hind limbs, HE staining): Mean±SEM
From the text: The collagen-induced mouse arthritis model is an animal model for evaluating the therapeutic effect of drug treatment for psoriatic arthritis, of which pathogenesis and symptoms are obviously related to psoriatic arthritis. The model activated the reactivity of B cells and T cells to collagen by the injection of type II collagen. The activated B cells and T cells were attracted to the joints to cause the inflammation, thereby triggering a series of symptoms related to human psoriatic arthritis, such as redness and swelling of the joints, articular cartilage, joint capsule damage and other symptoms. Collagen-induced mouse arthritis is often used to evaluate the therapeutic effect during preclinical evaluation of candidate compounds for the medication for treating psoriatic arthritis.
The purpose of the experiment was to examine the therapeutic effect of the compound WX063 of embodiment 63 on collagen-induced arthritis in mice, thereby providing the preclinical pharmacodynamics information for subsequent clinical studies.
Mice were randomly divided into different treatment groups. The first immunization day is recorded as Day 0, and the following days were recorded in order.
After the DBA/1 mice were anesthetized with isoflurane, the prepared collagen emulsion was subcutaneously injected into the tail.
On Day 23, 100 μL of LPS solution was administered intraperitoneally.
On day 27, as the mean clinical score reached about 1 point, 60 mice with moderate disease were selected and re-randomized according to body weight and score, with 10 mice per group.
Dexamethasone as a positive control drug was administered at a dose of 0.3 mg/kg, which was common in the CIA model. […] It was administered once a day for a total of 11 days. The volume of the intragastric administration was 10 mL/kg.
Clinical observation: From Day 7 before immunization to Day 23 after immunization, the basic health status and the body weight changes of the DBA/1 mice were observed daily (recorded once a week). After Day 23, the health status, the arthritis incidence and the body weight changes of the mice were observed daily (recorded at least three times a week) until the end of the experiment.
Clinical score: After LPS injection, the arthritis incidence of mice was observed daily. As the clinical symptoms of arthritis occurred, the degree of disease was scored according to the standards of 0-4 (redness, joint deformation) at least three times a week, wherein the highest score for each limb was 4 points, and the highest score for each animal was 16 points. […].
Pathology: On day 38, the mice were euthanized. The hind limbs of the mice were taken, soaked in the 10% formalin solution, decalcified with formic acid solution, embedded in paraffin, sectioned, and stained with hematoxylin-eosin and photographed by microscopy. The degree of joint damage was evaluated from four aspects: inflammatory cell infiltration, formation of […], cartilage damage and bone resorption, and scored according to the standards of 0-4.
The experimental data were expressed as mean value±standard error of mean (Mean±SEM). The body weight and the clinical scores were analyzed by double factor variance (two-way ANOVA). Pathological scores and AUC were tested by T test. p<0.05 was considered as significant difference.

Recombinant human PDE4B = Recombinant human PDE4B (Homo sapiens (Human), UniProt Q07343); experiment: Inhibitory activity against PDE 4B in vitro (fluorescence polarization, Transcreener AMP2/GMP2); type: biochemical; conditions: 1 μM cAMP
Method: Inhibitory activity of the compounds against PDE 4B
The enzyme activity was indicated by measuring the AMP/GMP expression and tracing AMP/GMP antibody binding based on fluorescence polarization in the biological assay.
10 mM Tris-HCl (pH 7.5), 5 mM MgCl2, 0.01% Brij 35, 1 mM DTT and 1% DMSO.
Recombinant human PDE4B (Gen accession number: NM_002600; amino acid 305 end) was expressed by baculovirus in Sf9 insect cells using an N-terminal GST tag. MW=78 kDa.
Transcreener® AMP2/GMP2 antibody and AMP2/GMP2 AlexaFluor633 tracer
i) Recombinant human PDE4B and the enzyme substrate (1 μM cAMP) were dissolved in the newly-prepared buffer solution, respectively.
ii) The PDE4B buffer solution defined as above was transferred into the reaction wells.
iii) The compound which was dissolved in 100% DMSO was added to the reaction wells of the PDE4B buffer solution by ultrasonic oscillator (echo 550; nanoliter range) and incubated at room temperature for 10 minutes.
iv) The enzymatic buffer solution was then added to the reaction wells defined as above to initiate the reaction.
v) The reaction was incubated at room temperature for 1 hour.
vi) The reaction was terminated by adding detecting mixture (Transcreener® AMP2/GMP2 antibody and AMP2/GMP2 AlexaFluor633 tracer) and incubated for 90 minutes with slowly mixing. The measurement range of fluorescence polarization is Ex/Em=620/688.
The fluorescence polarization signal was converted into nM according to the AMP/GMP standard curve and the percent enzyme activity relative to DMSO calculated by Excel. GraphPad Prism was used to plot the curves (Drawing Medicine Icon).

[2] = test system: LPS-induced TNFα from the peripheral monocytes of human; experiment: Inhibitory effect against LPS-induced TNFα in hPBMC in vitro (ELISA); type: cell-based; conditions: Monocyte, TNFα in supernatant, 24 hours
Method: Inhibitory activity of the compounds against the LPS-induced TNFα from the peripheral monocytes of human.
1. Whole blood in normal human was collected and EDTA-K2 was used as anticoagulant.
2. PBMC was isolated by Ficoll density gradient centrifugation. The concentration of the cells was adjusted to 2×10^6/mL.
3. 2×10^5 of cells were seed in per well of the 96-well U-bottom plate, followed by the addition of 200 μL/well of LPS with 1 ng/mL and 200 μL/per well of the compound with different concentration: […], 100 pM and 10 pM, with two duplicates of each concentration.
4. The reaction was incubated for 24 hours and the supernatant was collected.
5. ELISA was used to detect the level of TNFα in the supernatant and Graphpad Prism software was used to plot the inhibition curve and calculate the value of IC50.

Chain of Recombinant human PDE4B (Q07343 305-736 limits assumed): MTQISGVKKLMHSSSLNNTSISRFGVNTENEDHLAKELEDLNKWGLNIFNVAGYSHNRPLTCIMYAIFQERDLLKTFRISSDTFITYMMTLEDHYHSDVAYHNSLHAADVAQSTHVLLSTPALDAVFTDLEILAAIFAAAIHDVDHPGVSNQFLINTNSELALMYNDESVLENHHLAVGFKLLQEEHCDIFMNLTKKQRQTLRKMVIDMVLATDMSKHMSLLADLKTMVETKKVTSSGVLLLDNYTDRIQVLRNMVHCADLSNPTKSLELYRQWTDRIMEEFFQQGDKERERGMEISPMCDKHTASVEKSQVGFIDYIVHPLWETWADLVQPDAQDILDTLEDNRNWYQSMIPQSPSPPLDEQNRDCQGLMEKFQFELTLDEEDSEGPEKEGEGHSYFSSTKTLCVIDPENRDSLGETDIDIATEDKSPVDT

Row | SMILES | IC50 (Recombinant human PDE4B) | IC50 [2] | also measured
1 | C[C@@H]1C[C@H]2[C@@H]3CCC4=CC(=O)C=C[C@]4(C)[C@@]3(F)[C@@H](O)C[C@]2(C)[C@@]1(O)C(=O)CO [Dexamethasone, reference compound] |  |  | percentage inhibition of clinical score AUC relative to the vehicle control group ([1]; 0.3 mg/kg): 96.4%; clinical score ([1]; 0.3 mg/kg intragastric once a day, Day 30 and maintained to the end of the trial): 0 points
2 | CCOc1cc([C@@H](CS(C)(=O)=O)N2C(=O)c3cccc(NC(C)=O)c3C2=O)ccc1OC [Apremilast, reference compound] |  |  | mean clinical score ([1]; 5 mg/kg intragastric once a day, Day 37): 4.2 points; mean clinical score lower compared with the vehicle control group ([1]; 5 mg/kg, Day 37): 3.7 points; total pathological score (two hind limbs, HE staining) ([1]; 5 mg/kg): 13.90±1.89
3 | CCOc1cc([C@@H](CS(C)(=O)=O)n2c(=O)[nH]c3c(-c4ccccc4)ccnc32)ccc1OC [WX066] | 2.48 nM | 3.8 nM | 
4 | CCOc1cc([C@@H](CS(C)(=O)=O)n2c(=O)[nH]c3c(-c4cnn(C)c4)ccnc32)ccc1OC [WX067] | 18.5 nM | 6.4 nM | 
5 | CCOc1cc([C@@H](CS(C)(=O)=O)n2c(=O)[nH]c3cc(-c4cncnc4C)cnc32)ccc1OC [WX029] | 14.8 nM |  | 
6 | CCOc1cc([C@@H](CS(C)(=O)=O)n2c(=O)n(C3CCC3)c3cc(-c4ccccc4F)cnc32)ccc1OC [WX062] | 3.5 nM |  | 

More lines, main results first:

Row | IC50 (Recombinant human PDE4B) | IC50 [2] | SMILES | also measured
7 | 1.25 nM | 3.4 nM | CCOc1cc([C@@H](CS(C)(=O)=O)n2c(=O)n(C)c3cc(-c4ccccc4F)cnc32)ccc1OC [WX057] | 
8 | 1.87 nM | 8.8 nM | CCOc1cc([C@@H](CS(C)(=O)=O)n2c(=O)[nH]c3c(-c4ccccc4F)ccnc32)ccc1OC [WX065] | 
9 | 0.685 nM | 0.56 nM | CCOc1cc([C@@H](CS(C)(=O)=O)n2c(=O)[nH]c3c(C)c(-c4ccccc4F)cnc32)ccc1OC [WX063] | percentage inhibition of clinical score AUC relative to the vehicle control group ([1]; 0.3 mg/kg): 43.9%; mean clinical score ([1]; 0.3 mg/kg intragastric once a day, Day 37): 3.6 points; percentage inhibition of clinical score AUC relative to the vehicle control group ([1]; 1 mg/kg): 39.4%; mean clinical score ([1]; 1 mg/kg intragastric once a day, Day 37): 4.3 points; total pathological score (two hind limbs, HE staining) ([1]; 1 mg/kg): 14.00±2.43; percentage inhibition of clinical score AUC relative to the vehicle control group ([1]; 3 mg/kg): 51.7%; therapeutic effect (clinical score and arthritis pathology score) versus Apremilast 5 mg/kg (in words) ([1]; 3 mg/kg): better than the one of Apremilast; mean clinical score ([1]; 3 mg/kg intragastric once a day, Day 37): 3.5 points; total pathological score (two hind limbs, HE staining) ([1]; 3 mg/kg): 9.20±1.83; treatment of collagen-induced arthritis and pathological changes of arthritis (in words) ([1]; doses of 0.3, 1 and 3 mg/kg): significant improvement
10 | 0.861 nM |  | CCOc1cc([C@@H](CS(C)(=O)=O)n2c(=O)[nH]c3cc(-c4ccccc4OCC)cnc32)ccc1OC [WX031] | 
11 | < 0.5 nM |  | CCOc1cc(C(CS(C)(=O)=O)n2c(=O)[nH]c3c(-c4ccccc4)ccnc32)ccc1OC(F)F (stereo not drawn) [WX078] | 
12 | 0.515 nM |  | CCOc1cc([C@@H](CS(C)(=O)=O)n2c(=O)[nH]c3cc(-c4ccccc4CC)cnc32)ccc1OC [WX030] | 
